Data as given in ChEMBL document CHEMBL1138444 (J Med Chem, 2009).

Tests used:
[1] = in vitro; settings: human, microsomes
[2] = in vitro; settings: rat, microsomes
[3] = species: Rattus norvegicus; settings: in vivo
[4] = in vivo; settings: rat, po
[5] = in vivo; settings: rat
[6] = in vivo; settings: rat; remark: listed apart in the source
[7] = in vivo; settings: rat; remark: listed apart in the source
[8] = physchem; settings: polyethylene glycol
[9] = species: Mus musculus; assay: animal or person; settings: NSA, ip, read-out: INH
[10] = species: Mus musculus; assay: animal or person; settings: NSA, ip, read-out: INH; remark: listed apart in the source
[11] = species: Rattus norvegicus; assay: animal or person; settings: Sprague-Dawley, po, read-out: INH
[12] = in vivo; settings: rat, brain and plasma, ip

Row | SMILES | microsomal CLint [1] [µL/min/mg] | microsomal CLint [2] [µL/min/mg] | clearance [3] [mL/min/kg] | bioavailability [4] [%] | half-life [5] [h] | Cmax [6] [nM] | Tmax [7] [h] | solubility [8] [mg/mL] | inhibition in vivo at 3 mg/kg [9] [%] | inhibition in vivo at 1 mg/kg [10] [%] | inhibition in vivo at 10 mg/kg [11] [%] | Kp [12]
1 | O=C(NCc1cccc(Cl)c1)c1ccc2c(c1)N=C(N1CCC(F)(F)CC1)c1ccccc1S2 | 40 | 66 |  |  |  |  |  |  |  |  |  | 
2 | CCCCNC(=O)c1ccc2c(c1)N=C(c1ccc(Cl)cc1)c1ccccc1S2 | 24 | 89 | 0.51 | 25 | 5.8 | 677 | 6 | > 3.7 | 82 | 71 | 69 | 
3 | CC(C)CNC(=O)c1ccc2c(c1)N=C(c1ccc(Cl)s1)c1ccccc1S2 |  |  |  |  |  |  |  |  | 73 |  | 54 | 
4 | CCCCNC(=O)c1ccc2c(c1)N=C(c1ccc(F)c(Cl)c1)c1ccccc1S2 | 16 | 58 |  |  |  |  |  | > 13 | 94 | 70 | 59 | 
5 | CCCC1=Nc2cc(C(=O)NC3CCN(C(=O)OCC)CC3)ccc2Sc2ccccc21 | 279 | 539 |  |  |  |  |  |  |  |  |  | 
6 | O=C(NCc1cccc(Cl)c1)c1ccc2c(c1)N=C(N1CCCCC1)c1ccccc1S2 | 265 | 644 |  |  |  |  |  |  |  |  |  | 
7 | CCCCNC(=O)c1ccc2c(c1)N=C(c1ccc(Cl)c(Cl)c1)c1ccccc1S2 |  | 32 |  |  |  |  |  | > 14 | 58 |  |  | 
8 | O=C(NN1CCCCC1)c1ccc2c(c1)N=C(C1CCCCC1)c1ccccc1S2 | 84 | 846 | 7.36 | 13 | 2.1 | 651 | 0.5 |  |  |  |  | 4
9 | Cc1c(C(=O)NN2CCCCC2)nn(-c2ccc(Cl)cc2Cl)c1-c1ccc(Cl)cc1 [RIMONABANT] | 41 | 159 |  |  |  |  |  |  |  | 70 | 55 | 
10 | CN/C(=N\S(=O)(=O)c1ccc(Cl)cc1)N1C[C@H](c2ccccc2)C(c2ccc(Cl)cc2)=N1 (racemic) [IBIPINABANT] |  |  |  |  |  |  |  |  | 82 | 51 |  | 
